We go through 9 compounds from ChEMBL document CHEMBL3045569, “Synthesis of allyl esters of fatty acids and their ovicidal effect on Cydia pomonella (L.)” (2009).

The subject of assay [1] is Cydia pomonella. Kind of assay: Ovicidal activity against <24 hr-old Cydia pomonella (codling moth) eggs assessed as corrected mortality at 5 mg/ml applied as 0.1 ul drop solution topically measured for 3 days. The following applies: topical, 72 h. The assay is classed as functional.
For assay [2], the system named is Cydia pomonella. Kind of assay: Ovicidal activity against <24 hr-old Cydia pomonella (codling moth) eggs assessed as corrected mortality at 0.5 mg/ml applied as 0.1 ul drop solution topically measured for 3 days. The following applies: topical, 72 h. The assay is classed as functional.
Assay [3] has as its system Cydia pomonella. Kind of assay: Ovicidal activity against <24 hr-old Cydia pomonella (codling moth) eggs assessed as mortality at the stage of white head development at 10 mg/ml applied as 0.1 ul drop solution topically measured for 3 days (acetone Rvb = 1.1 +/-0.44%). Type of assay: functional. The settings on record: topical, 72 h.
The test system of assay [4] is Cydia pomonella. Kind of assay: Ovicidal activity against <24 hr-old Cydia pomonella (codling moth) eggs assessed as corrected mortality at 1.75 mg/ml applied as 0.1 ul drop solution topically measured for 3 days. Type of assay: functional. The settings on record: topical, 72 h.
The subject of assay [5] is Cydia pomonella. Kind of assay: Ovicidal activity against <24 hr-old Cydia pomonella (codling moth) eggs assessed as mortality applied as 0.1 ul drop solution topically measured for 3 days. Type of assay: functional. The settings on record: for LC50: Cydia pomonella, topical, 72 h.
Assay [6] concerns Cydia pomonella. The experiment in a line: Ovicidal activity against <24 hr-old Cydia pomonella (codling moth) eggs assessed as mortality at the stage of black head development at 10 mg/ml applied as 0.1 ul drop solution topically measured for 3 days (acetone Rvb = 94.4 +/-0.1%). The assay is classed as functional. The settings on record: topical, 72 h.
The test system of assay [7] is Cydia pomonella. The experiment in a line: Ovicidal activity against <24 hr-old Cydia pomonella (codling moth) eggs assessed as mortality at the stage of red ring development at 10 mg/ml applied as 0.1 ul drop solution topically measured for 3 days (acetone Rvb = 4.4 +/-0.22%). Type of assay: functional. The following applies: topical, 72 h.
In assay [8] the test system is Cydia pomonella. Kind of assay: Ovicidal activity against <24 hr-old Cydia pomonella (codling moth) eggs assessed as corrected mortality at 7.5 mg/ml applied as 0.1 ul drop solution topically measured for 3 days. Type of assay: functional. The settings on record: topical, 72 h.
Assay [9] concerns Cydia pomonella. The experiment in a line: Ovicidal activity against <24 hr-old Cydia pomonella (codling moth) eggs assessed as corrected mortality at 1 mg/ml applied as 0.1 ul drop solution topically measured for 3 days. The assay is classed as functional. The following applies: topical, 72 h.
The subject of assay [10] is Cydia pomonella. Kind of assay: Ovicidal activity against <24 hr-old Cydia pomonella (codling moth) eggs assessed as corrected mortality at 2.5 mg/ml applied as 0.1 ul drop solution topically measured for 3 days. Type of assay: functional. The following applies: topical, 72 h.
In assay [11] the test system is Cydia pomonella. Kind of assay: Ovicidal activity against <24 hr-old Cydia pomonella (codling moth) eggs assessed as corrected mortality at 0.1 mg/ml applied as 0.1 ul drop solution topically measured for 3 days. The settings on record: topical, 72 h. The assay is classed as functional.
Assay [12] deals with Cydia pomonella. Kind of assay: Ovicidal activity against <24 hr-old Cydia pomonella (codling moth) eggs assessed as corrected mortality at 10 mg/ml applied as 0.1 ul drop solution topically measured for 3 days. The assay is classed as functional. The settings on record: topical, 72 h.
Assay [13] concerns Cydia pomonella. The experiment in a line: Ovicidal activity against <24 hr-old Cydia pomonella (codling moth) eggs assessed as increase in duration of the development of eggs applied as 0.1 ul drop solution topically measured for 3 days. Type of assay: functional, organism-based.

In brackets after ≈: the same amount, converted by molar mass. Activity calls are given as the source filed them. No cut-off for these calls is given here.

For the compound `C=CCOC(=O)CCC` [ALLYL BUTANOATE], the mortality at 5000 µg/mL in assay [1] turned out to be 98.7%. Moreover, the mortality at 500 µg/mL in assay [2] is 20.5%. For the same compound, the mortality at 10000 µg/mL in assay [3] is 75.6%; in assay [6], 10%; in assay [7] it was 14.4%; in assay [12], 100%. The mortality at 1750 µg/mL in [4] amounted to 72%. In assay [5], the LC90 stood at 3200 µg/mL (≈ 25 mM). Further, the LC50 in assay [5] was 1060 µg/mL (≈ 8.27 mM). The mortality at 7500 µg/mL in assay [8] amounted to 100%. Moreover, the mortality at 1000 µg/mL in [9] came to 42.7%. Further, the mortality at 2500 µg/mL in assay [10] was found to be 83.3%. The mortality at 100 µg/mL in assay [11] was 6%. Besides, the result in [13] was Active.

As for `C=CCOC(=O)CCCCCCCCC` [ALLYL DECANOATE], in assay [1], the mortality at 5000 µg/mL was determined as 98.7%. Also, in [2], the mortality at 500 µg/mL was found to be 12.4%. Further, the mortality at 10000 µg/mL in assay [3] worked out at 68.9%; in assay [6], 14.4%; in assay [7] it was 16.7%; in [12], 100%. Further, in [4], the mortality at 1750 µg/mL was found to be 76.3%. The LC90 in assay [5] was found to be 2260 µg/mL (≈ 10.6 mM). Moreover, the median lethal concentration (LC50) in assay [5] is 1400 µg/mL (≈ 6.59 mM). In addition, the mortality at 7500 µg/mL in [8] came out at 100%. In addition, the mortality at 1000 µg/mL in assay [9] was 30.5%. In addition, the mortality at 2500 µg/mL in assay [10] worked out at 97.2%. The mortality at 100 µg/mL in assay [11] is 7.4%. In addition, in [13], the result was Active.

Take `C=CCOC(=O)CCCCCCCCCCC` [ALLYL DODECANOATE]: the mortality at 5000 µg/mL in assay [1] was 96.5%. In addition, the mortality at 500 µg/mL in assay [2] was 10%. The mortality at 10000 µg/mL worked out at 68.9% in assay [3], 18.9% in assay [6], 12.2% in assay [7] and 100% in assay [12]. For the same compound, the mortality at 1750 µg/mL in [4] was 71.7%. Also, the LC90 in [5] was 2340 µg/mL (≈ 9.73 mM). Moreover, the LC50 in [5] turned out to be 1140 µg/mL (≈ 4.74 mM). Further, the mortality at 7500 µg/mL in assay [8] stood at 98.8%. Moreover, in [9], the mortality at 1000 µg/mL was 36.4%. The mortality at 2500 µg/mL in [10] came to 95.9%. For the same compound, the mortality at 100 µg/mL in assay [11] turned out to be 0%. Besides, in assay [13], the outcome was Active.

`C=CCOC(=O)CCCCC` [ALLYL HEXANOATE]: in [1], the mortality at 5000 µg/mL came out at 98.7%. Further, the mortality at 500 µg/mL in assay [2] was found to be 22.4%. Moreover, the mortality at 10000 µg/mL in assay [3] turned out to be 67.8%; in assay [6], 18.9%; in [7], 13.3%; in [12], 100%. For the same compound, the mortality at 1750 µg/mL in assay [4] came out at 83.8%. Besides, the LC90 in assay [5] came to 2130 µg/mL (≈ 13.6 mM). Moreover, in assay [8], the mortality at 7500 µg/mL was 100%. The mortality at 1000 µg/mL in assay [9] is 51.2%. Moreover, the mortality at 2500 µg/mL in assay [10] was found to be 95.8%. For the same compound, the mortality at 100 µg/mL in [11] was 8.4%. For the same compound, in assay [13], the outcome was Active.

Consider `C=CCOC(=O)CCCCCCCCCCCCCCCCC` [ALLYL OCTADECANOATE], for which the mortality at 5000 µg/mL in [1] is 82.2%. In addition, in assay [2], the mortality at 500 µg/mL is 11.9%. Besides, the mortality at 10000 µg/mL amounted to 43.3% in [3], 43.3% in assay [6], 13.3% in assay [7] and 100% in assay [12]. Moreover, the mortality at 1750 µg/mL in assay [4] stood at 32.1%. Besides, the LC90 in assay [5] worked out at 7330 µg/mL (≈ 22.6 mM). Further, the LC50 in assay [5] was found to be 2690 µg/mL (≈ 8.29 mM). Moreover, the mortality at 7500 µg/mL in assay [8] amounted to 87.2%. The mortality at 1000 µg/mL in assay [9] stood at 17.3%. Further, in assay [10], the mortality at 2500 µg/mL is 41.6%. Also, in [11], the mortality at 100 µg/mL was 0%. Also, the result in [13] was Active.

`C=CCOC(=O)CCCCCCC` [ALLYL OCTANOATE]: the mortality at 5000 µg/mL in assay [1] amounted to 97.7%. In addition, in assay [2], the mortality at 500 µg/mL was determined as 29.9%. For the same compound, the mortality at 10000 µg/mL in [3] was 80%; in assay [6] it was 6.7%; in [7] it was 13.3%; in [12], 100%. Further, the mortality at 1750 µg/mL in assay [4] came to 83.8%. Also, the LC90 in assay [5] was 2180 µg/mL (≈ 11.8 mM). The LC50 in assay [5] is 710 µg/mL (≈ 3.85 mM). The mortality at 7500 µg/mL in [8] stood at 98.8%. Also, the mortality at 1000 µg/mL in assay [9] came to 59.2%. Besides, the mortality at 2500 µg/mL in assay [10] is 95.9%. In [11], the mortality at 100 µg/mL was determined as 9.7%. Also, in [13], the outcome was Active.

With `C=CCOC(=O)CCCCCCCCCCCCC` [ALLYL TETRADECANOATE], in [1], the mortality at 5000 µg/mL was found to be 97.2%. The mortality at 500 µg/mL in assay [2] came out at 7.5%. In addition, the mortality at 10000 µg/mL in [3] came to 54.4%; in [6], 27.8%; in assay [7], 17.8%; in assay [12], 100%. For the same compound, the mortality at 1750 µg/mL in [4] worked out at 49.5%. Further, the LC90 in assay [5] was found to be 3240 µg/mL (≈ 12.1 mM). The LC50 in [5] was determined as 1410 µg/mL (≈ 5.25 mM). Besides, in assay [8], the mortality at 7500 µg/mL turned out to be 97.7%. Besides, the mortality at 1000 µg/mL in assay [9] stood at 19.8%. In [10], the mortality at 2500 µg/mL is 87.5%. Further, the mortality at 100 µg/mL in assay [11] was determined as 4.6%. Also, in assay [13], the outcome was Active.

On to `C=CCOC(=O)CCCCCCCCCCCCCCC` [HEXADECANOIC ACID ALLYL ESTER], for which, in [1], the mortality at 5000 µg/mL was 72.2%. Further, the mortality at 500 µg/mL in [2] was determined as 0%. For the same compound, the mortality at 10000 µg/mL in [3] was 28.9%; in assay [6], 46.7%; in assay [7], 24.4%; in [12], 100%. For the same compound, in assay [4], the mortality at 1750 µg/mL came to 32.6%. In addition, the LC90 in [5] was found to be 7970 µg/mL (≈ 26.9 mM). Further, in assay [5], the LC50 was 2460 µg/mL (≈ 8.3 mM). Also, the mortality at 7500 µg/mL in assay [8] turned out to be 87.2%. For the same compound, the mortality at 1000 µg/mL in assay [9] amounted to 6%. Moreover, the mortality at 2500 µg/mL in assay [10] is 66.6%. For the same compound, the mortality at 100 µg/mL in [11] worked out at 0%. Further, in assay [13], the outcome was Active.

Consider `CCOC(=O)NCCOc1ccc(Oc2ccccc2)cc1` [PHENOXYCARB], for which the mortality at 500 µg/mL in assay [2] was 100%.

In general, mortality refers to the percentage killed. As a reminder, the LC50 is the concentration that kills 50% of the test population.
